From US11028087B2, “2,6-disubstituted-9-cyclopentyl-9H-purines, use thereof as medicaments, and pharmaceutical compositions” (UNIVERZITA PALACKEHO V OLOMOUCI, priority 2017, dated 2021)
Substitutions are numbered along the chain they refer to.

Tests used:
[1] = tested on: MV4-11 (acute myeloid leukemia, FLT3-ITD positive); assay: Calcein AM cytotoxicity assay; type: cell-based; conditions: Homo sapiens, 72 h; MV4-11; Calcein AM, three days after drug addition; read-out: EC50 values (μM) MV4-11
From the text: (§1) Cytotoxicity of the compounds is the major property determining their anticancer effect in vivo. One of the parameters used, as the basis for cytotoxicity assays, is the integrity of cytoplasmic membrane of viable cells. For example, a microtiter assay, which uses acetomethoxy derivate of calcein (Calcein AM), is widely used for evaluation of cell proliferation and cytotoxicity. This assay is used in drug screening programs and in chemosensitivity testing. Intracellular esterases of viable cells convert calcein AM to green-fluorescent calcein of which signal corresponds to the number of viable cells in the culture.
(§2) We have been using the following cell lines: MV4-11 (acute myeloid leukemia, FLT3-ITD positive), MOLM-13 (acute myeloid leukemia, FLT3-ITD positive), THP-1 (acute myeloid leukemia, wt FLT3), U937 (monocytic leukemia, wt FLT3), EOL-1 (eosinophilic leukaemia, carrying the fusion FIP1L1-PDGFRA), H1703 (non-small cell lung carcinoma, PDGFRA amplification). […] K562 and MCF-7 cell lines were maintained in DMEM supplemented with 10% fetal bovine serum, penicilin (100 U/ml) and streptomycin (100 μg/ml). All cell lines were cultivated at 37° C. in 5% CO2. For cytotoxicity assays, cells were seeded in appropriate densities into 96 well plates and the next day tested compounds were added at various concentrations in triplicates. Three days after drug addition, Calcein AM solution (final concentration 1 μg/ml; Thermo Scientific, USA) was added into each well and incubated for 1 h.

[2] = tested on: THP-1 (acute myeloid leukemia, wt FLT3); assay: Calcein AM cytotoxicity assay; type: cell-based; conditions: Homo sapiens, 72 h; THP-1; Calcein AM, three days; read-out: EC50 values (μM) THP-1
From the text: as §1, §2

[3] = tested on: MOLM-13 (acute myeloid leukemia, FLT3-ITD positive); assay: Calcein AM cytotoxicity assay; type: cell-based; conditions: Homo sapiens, 72 h; MOLM-13; Calcein AM, three days; read-out: EC50 values (μM) MOLM-13
From the text: as §1, §2

[4] = tested on: EOL-1 (eosinophilic leukaemia, carrying the fusion FIP1L1-PDGFRA); assay: Calcein AM cytotoxicity assay; type: cell-based; conditions: Homo sapiens, EOL1, 72 h; EOL-1; Calcein AM, three days; read-out: EC50 values (μM) EOL-1
From the text: as §1, §2

[5] = tested on: U937 (monocytic leukemia, wt FLT3); assay: Calcein AM cytotoxicity assay; type: cell-based; conditions: Homo sapiens, U-937, 72 h; U937; Calcein AM, three days; read-out: EC50 values (μM) U937
From the text: as §1, §2

MCF-7 = assay: Calcein AM cytotoxicity assay; type: cell-based; conditions: Homo sapiens, MCF7, 72 h; MCF-7; Calcein AM, three days; read-out: EC50 values (μM) MCF-7
From the text: as §1, §2

K562 = assay: Calcein AM cytotoxicity assay; type: cell-based; conditions: Homo sapiens, 72 h; K562; Calcein AM, three days; read-out: EC50 values (μM) K562
From the text: as §1, §2

HL60 = assay: Calcein AM cytotoxicity assay; type: cell-based; conditions: Homo sapiens, HL-60, 72 h, three days
[6] = tested on: Kasumi-1 (acute myeloid leukemia, KIT mutation Asn822Lys); assay: Calcein AM cytotoxicity assay; type: cell-based; conditions: Homo sapiens, 72 h; Kasumi-1; Calcein AM, three days; read-out: EC50 values (μM) Kasumi-1
From the text: as §1
We have been using the following cell lines: MV4-11 (acute myeloid leukemia, FLT3-ITD positive), MOLM-13 (acute myeloid leukemia, FLT3-ITD positive), THP-1 (acute myeloid leukemia, wt FLT3), U937 (monocytic leukemia, wt FLT3), EOL-1 (eosinophilic leukaemia, carrying the fusion FIP1L1-PDGFRA), H1703 (non-small cell lung carcinoma, PDGFRA amplification). They were maintained in RPMI-1640 supplemented with 10% fetal bovine serum, penicillin (100 U/ml) and streptomycin (100 μg/ml). Kasumi-1 (acute myeloid leukemia, KIT mutation Asn822Lys) cells were cultivated in RPMI-1640 supplemented with 15% fetal bovine serum, penicillin (100 U/ml) and streptomycin (100 μg/ml). K562 and MCF-7 cell lines were maintained in DMEM supplemented with 10% fetal bovine serum, penicilin (100 U/ml) and streptomycin (100 μg/ml). All cell lines were cultivated at 37° C. in 5% CO2. For cytotoxicity assays, cells were seeded in appropriate densities into 96 well plates and the next day tested compounds were added at various concentrations in triplicates. Three days after drug addition, Calcein AM solution (final concentration 1 μg/ml; Thermo Scientific, USA) was added into each well and incubated for 1 h. After this incubation period, fluorescence of the live cells was measured at 485 nm/538 nm (ex/em) with a Fluoroskan Ascent microplate reader (Labsystems).

CDK2/Cyclin E = molecular target: T1, CDK2/Cyclin E (Homo sapiens, UniProt P24941); assay: Kinase inhibition assay with [γ-33P]ATP; type: biochemical; conditions: histone H1, 15 μM ATP; read-out: IC50 values (μM) CDK2
T1 construct: made in house; host or cells: Sf9 insect cells, baculoviral infection
Procedure: (§3) CDK1/Cyclin B and CDK2/Cyclin E kinases were produced in Sf9 insect cells via baculoviral infection and purified on a NiNTA column (Qiagen). CDK5/p35 and CDK7Cyclin H/MAT1, FLT3 WT, FLT3-ITD and FLT3 D835 were purchased from ProQinase GmbH. The kinase reactions were assayed with 1 mg/mL histone H1 (for CDK1, CDK2 and CDK5), (YSPTSPS)2KK peptide (for CDK7) or AGLT substrate (for FLT3) in the presence of 15/15/0.15/1.5/1 μM ATP (for CDK1/CDK2/CDK5/CDK7/FLT3), 0.05 μCi [γ-^33P]ATP and of the test compound in a final volume of 10 μL, all in a reaction buffer (60 mM HEPES-NaOH, pH 7.5, 3 mM MgCl2, 3 mM MnCl2, 3 μM Na-orthovanadate, 1.2 mM DTT, 2.5 μg/50 μl PEG20,000). The reactions were stopped by adding 5 μL of 3% aq H3PO4. Aliquots were spotted onto P-81 phosphocellulose (Whatman), washed 3× with 0.5% aq H3PO4 and finally air-dried.

FLT3-ITD = molecular target: T2, FLT3-ITD (Homo sapiens, UniProt P36888); assay: Kinase inhibition assay with [γ-33P]ATP; type: biochemical; conditions: AGLT substrate, 1 μM ATP; read-out: IC50 values (μM) FLT3 ITD
T2 sequence (P36888 1-993): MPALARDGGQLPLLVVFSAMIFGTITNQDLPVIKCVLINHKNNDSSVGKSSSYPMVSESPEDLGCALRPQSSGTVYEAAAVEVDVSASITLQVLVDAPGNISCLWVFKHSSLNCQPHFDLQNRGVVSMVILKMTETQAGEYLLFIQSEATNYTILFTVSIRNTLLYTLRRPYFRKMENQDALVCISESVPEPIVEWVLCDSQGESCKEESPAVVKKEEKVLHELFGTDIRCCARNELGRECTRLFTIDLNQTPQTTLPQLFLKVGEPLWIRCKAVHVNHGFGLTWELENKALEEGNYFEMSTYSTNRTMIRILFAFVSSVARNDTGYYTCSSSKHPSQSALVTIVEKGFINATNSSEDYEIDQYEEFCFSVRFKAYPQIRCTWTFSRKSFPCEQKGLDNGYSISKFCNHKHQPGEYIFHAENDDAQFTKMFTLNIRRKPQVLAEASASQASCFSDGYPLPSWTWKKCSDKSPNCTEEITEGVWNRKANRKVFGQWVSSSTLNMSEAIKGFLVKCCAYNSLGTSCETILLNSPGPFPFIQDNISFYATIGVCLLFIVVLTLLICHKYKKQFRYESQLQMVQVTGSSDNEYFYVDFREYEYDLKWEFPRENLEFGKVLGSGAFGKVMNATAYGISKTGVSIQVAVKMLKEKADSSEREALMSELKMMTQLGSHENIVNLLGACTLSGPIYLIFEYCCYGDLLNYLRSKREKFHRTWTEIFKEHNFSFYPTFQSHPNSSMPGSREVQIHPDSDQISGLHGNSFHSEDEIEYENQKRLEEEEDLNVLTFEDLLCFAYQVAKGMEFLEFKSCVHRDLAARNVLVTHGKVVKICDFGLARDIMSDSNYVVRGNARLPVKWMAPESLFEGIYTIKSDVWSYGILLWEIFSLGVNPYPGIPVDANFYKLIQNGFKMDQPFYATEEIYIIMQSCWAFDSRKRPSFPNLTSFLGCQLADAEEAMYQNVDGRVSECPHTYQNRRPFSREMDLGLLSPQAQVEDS
Procedure: as §3

CDK1/Cyclin B = molecular target: T3, CDK1/Cyclin B (Homo sapiens, UniProt P06493); assay: Kinase inhibition assay with [γ-33P]ATP; type: biochemical; conditions: histone H1, 15 μM ATP
T3 construct: made in house; host or cells: Sf9 insect cells, baculoviral infection
T3 sequence (P06493 whole entry, species assumed): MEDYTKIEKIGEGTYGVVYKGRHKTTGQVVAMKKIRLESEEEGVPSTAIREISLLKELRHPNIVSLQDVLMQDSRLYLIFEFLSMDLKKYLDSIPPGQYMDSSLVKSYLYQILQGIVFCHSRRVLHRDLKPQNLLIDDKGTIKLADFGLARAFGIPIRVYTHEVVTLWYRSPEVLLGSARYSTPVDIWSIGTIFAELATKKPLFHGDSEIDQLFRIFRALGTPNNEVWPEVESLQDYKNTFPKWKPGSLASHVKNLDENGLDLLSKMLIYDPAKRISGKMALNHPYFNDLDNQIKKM
T3 sequence (P14635 whole entry partner, species assumed): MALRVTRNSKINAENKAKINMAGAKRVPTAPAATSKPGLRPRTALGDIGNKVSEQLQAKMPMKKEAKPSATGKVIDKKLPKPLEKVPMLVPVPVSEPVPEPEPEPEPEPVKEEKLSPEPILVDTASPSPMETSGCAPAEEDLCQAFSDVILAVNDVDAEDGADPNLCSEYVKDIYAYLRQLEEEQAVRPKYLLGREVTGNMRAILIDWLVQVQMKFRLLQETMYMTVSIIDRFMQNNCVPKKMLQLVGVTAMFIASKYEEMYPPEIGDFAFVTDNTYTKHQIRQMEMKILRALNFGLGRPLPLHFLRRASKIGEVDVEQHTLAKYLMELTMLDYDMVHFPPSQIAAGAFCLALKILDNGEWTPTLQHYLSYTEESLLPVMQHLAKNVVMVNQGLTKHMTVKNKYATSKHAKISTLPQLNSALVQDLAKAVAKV
Procedure: as §3

FLT3 WT = molecular target: T4, FLT3 WT (Homo sapiens, UniProt P36888); assay: Kinase inhibition assay with [γ-33P]ATP; type: biochemical; conditions: AGLT substrate, 1 μM ATP
T4 construct: purchased ProQinase GmbH
T4 sequence (P36888 27-993): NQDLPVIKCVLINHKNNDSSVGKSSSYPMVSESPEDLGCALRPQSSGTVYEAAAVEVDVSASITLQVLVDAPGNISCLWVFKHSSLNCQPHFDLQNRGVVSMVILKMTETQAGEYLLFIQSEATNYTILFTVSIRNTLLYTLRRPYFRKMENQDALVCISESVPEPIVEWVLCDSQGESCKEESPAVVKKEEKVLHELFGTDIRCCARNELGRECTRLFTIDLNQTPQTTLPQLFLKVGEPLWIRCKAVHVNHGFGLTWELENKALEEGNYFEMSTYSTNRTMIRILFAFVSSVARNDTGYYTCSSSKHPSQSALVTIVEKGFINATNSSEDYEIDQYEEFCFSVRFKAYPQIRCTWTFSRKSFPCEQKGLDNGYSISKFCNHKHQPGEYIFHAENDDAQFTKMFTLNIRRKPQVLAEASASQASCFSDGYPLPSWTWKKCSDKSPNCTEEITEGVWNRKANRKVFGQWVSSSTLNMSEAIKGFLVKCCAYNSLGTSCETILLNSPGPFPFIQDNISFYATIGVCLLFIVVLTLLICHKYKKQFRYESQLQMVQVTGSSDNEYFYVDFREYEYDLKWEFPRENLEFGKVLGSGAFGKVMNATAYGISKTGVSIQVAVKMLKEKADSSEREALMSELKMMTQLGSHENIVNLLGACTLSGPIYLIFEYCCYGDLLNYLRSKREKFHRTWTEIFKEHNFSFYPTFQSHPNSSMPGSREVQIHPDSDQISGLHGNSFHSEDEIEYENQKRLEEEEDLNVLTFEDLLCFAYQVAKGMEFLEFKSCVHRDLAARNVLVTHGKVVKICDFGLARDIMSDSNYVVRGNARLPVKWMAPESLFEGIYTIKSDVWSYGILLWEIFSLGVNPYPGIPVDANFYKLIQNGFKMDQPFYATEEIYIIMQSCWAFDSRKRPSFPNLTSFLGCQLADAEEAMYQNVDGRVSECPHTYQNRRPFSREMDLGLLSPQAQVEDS
Procedure: as §3

CDK5/p35 = molecular target: T5, CDK5/p35 (Homo sapiens, UniProt Q00535); assay: Kinase inhibition assay with [γ-33P]ATP; type: biochemical; conditions: histone H1, 0.15 μM ATP
T5 construct: purchased ProQinase GmbH
T5 sequence (Q00535 whole entry): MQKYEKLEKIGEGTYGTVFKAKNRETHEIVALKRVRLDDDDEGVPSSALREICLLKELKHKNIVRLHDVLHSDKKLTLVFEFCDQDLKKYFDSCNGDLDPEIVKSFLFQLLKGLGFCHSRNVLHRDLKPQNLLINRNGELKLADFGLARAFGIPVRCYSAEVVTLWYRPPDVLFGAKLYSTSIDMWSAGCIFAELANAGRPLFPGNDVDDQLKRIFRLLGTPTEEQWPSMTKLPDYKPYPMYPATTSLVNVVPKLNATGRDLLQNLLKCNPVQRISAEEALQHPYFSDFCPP
T5 sequence (Q15078 whole entry partner): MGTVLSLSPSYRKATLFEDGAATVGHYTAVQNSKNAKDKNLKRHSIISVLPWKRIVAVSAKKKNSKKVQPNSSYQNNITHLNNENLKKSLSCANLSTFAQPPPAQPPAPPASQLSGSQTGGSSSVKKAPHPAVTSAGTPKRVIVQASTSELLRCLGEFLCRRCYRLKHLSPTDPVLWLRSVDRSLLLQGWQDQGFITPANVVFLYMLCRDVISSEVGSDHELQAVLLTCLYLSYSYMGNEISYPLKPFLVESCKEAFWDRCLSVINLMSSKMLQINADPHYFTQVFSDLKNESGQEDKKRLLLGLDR
Procedure: as §3

FLT3 D835 = molecular target: T6, FLT3 D835 (Homo sapiens, UniProt P36888); assay: Kinase inhibition assay with [γ-33P]ATP; type: biochemical; conditions: AGLT substrate, 1 μM ATP
T6 sequence (P36888 1-993 D835Y): T2 sequence (P36888 1-993) with D835Y
Procedure: as §3

Compound: NC1CCC(Nc2nc(Nc3ccc(CN4CC5(COC5)C4)nc3)c3ncn(C4CCCC4)c3n2)CC1 (stereo not drawn) [Compound 5]
- EC50 [1]: 0.011 µM
- EC50 [2]: 0.903 µM
- EC50 [3]: 0.014 µM
- EC50 [4]: 0.019 µM
- EC50 [5]: 0.44 µM
- EC50 (MCF-7): 0.41 µM
- EC50 (K562): 0.432 µM
- EC50 (HL60): 1.21 µM
- EC50 [6]: 0.588 µM

Compound: CCN1CC2(C1)CN(Cc1ccc(Nc3nc(NC4CCC(O)CC4)nc4c3ncn4C3CCCC3)cc1)C2 (stereo not drawn) [Compound 8]
- EC50 [1]: 0.042 µM
- EC50 [2]: 2.1 µM
- EC50 [3]: 0.056 µM
- EC50 [4]: 0.049 µM
- EC50 [5]: 1.35 µM
- EC50 (MCF-7): 0.22 µM
- EC50 (K562): 0.391 µM
- EC50 (HL60): 1.42 µM
- EC50 [6]: 0.636 µM

Compound: CCN1CC2(C1)CN(Cc1ccc(Nc3nc(NCCCN)nc4c3ncn4C3CCCC3)cc1)C2 [Compound 20]
- IC50 (CDK2/Cyclin E): 0.005 µM
- IC50 (FLT3-ITD): 0.004 µM
- IC50 (CDK1/Cyclin B): 0.04 µM
- IC50 (FLT3 WT): 0.015 µM
- IC50 (CDK5/p35): 0.044 µM
- IC50 (FLT3 D835): 0.004 µM
